The record followed here is patent US20130116277A1, “ALDO-KETO REDUCTASE SUBFAMILY 1C3 (AKR1C3) INHIBITORS” (priority 2007, published 2013).

The target of data set [1] is T1, AKR1C3 (Homo sapiens, UniProt P42330).
T1 sequence (P42330 1-323): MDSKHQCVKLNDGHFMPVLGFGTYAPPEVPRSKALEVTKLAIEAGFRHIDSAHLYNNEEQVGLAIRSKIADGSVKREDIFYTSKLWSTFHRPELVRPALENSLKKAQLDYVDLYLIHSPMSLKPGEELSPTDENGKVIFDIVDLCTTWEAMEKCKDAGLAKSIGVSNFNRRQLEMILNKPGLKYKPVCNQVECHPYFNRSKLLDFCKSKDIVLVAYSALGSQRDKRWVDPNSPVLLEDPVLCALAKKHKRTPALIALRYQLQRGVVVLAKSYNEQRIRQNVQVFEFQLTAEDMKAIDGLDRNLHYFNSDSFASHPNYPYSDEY
Description: (§1) AKR1C3 expression was checked by Western blot to ensure that the cells over-express AKR1C3. […] Medium was changed to RPMI+1% csFBS without phenol red and maintained in this medium for 3 days to reduce basal hormone levels. […] The data was plotted in SigmaPlot (Systat Software Inc.) and the IC50 values for inhibitors were calculated.
(§2) HEK-293 cells stably transfected with AKR1C3 were plated in 24 well plates and were maintained in RPMI+1% csFBS without phenol red for 2 days to reduce the basal steroid levels.

A further data set has as its target ER-β (Homo sapiens, UniProt Q92731). As to the kind of experiment: ER-β ligand binding domain competitive binding with [3H]Estradiol.
In data set [2] the target is T1, AKR1C3. As to the kind of experiment: cell-based.
Description: as §1, §2
Data set [3] concerns the target T1, AKR1C3. As to the kind of experiment: Purified AKR1C3 enzyme assay, [14C]-A'dione to testosterone, TLC based. Format: biochemical. Also noted: GST (N); made in house; host or cells: bacterial culture, IPTG induced (E. coli BL21-DE3 is named only for the crystallography preparation). Here is the method: Perkin Elmer; […] American Radiolabeled Chemicals, St. Louis, Mo.). The reaction was stopped by the addition of 400 μl ethyl acetate, vortexed, and spun for […] at 2000 rpm. The upper layer was transferred to a new tube and air dried. The pellet was resuspended in 25 μl of methanol, spotted on TLC plates and fractionated in TLC chamber with 3:1 chloroform:ethyl acetate. Once the mobile phase reached the top, the plates were dried and exposed to a phosphoimager screen overnight. […] Perkin Elmer) was incubated at 37° C. for 60 min. The reaction was stopped by the addition of 400 μl ethyl acetate, vortexed, and spun for […] at 2000 rpm. The upper layer was transferred to a new tube and air dried. The pellet was resuspended in 25 μl of methanol, spotted on TLC plates and fractionated in TLC chamber with 3:1 chloroform:ethyl acetate. Once the mobile phase reached the top, the plates were dried and exposed to a phosphoimager screen overnight.

For the next data set, the target named is T2, ER-alpha (Homo sapiens, UniProt P03372).
T2 construct: expressed in transfected cells; host or cells: HEK-293
T2 sequence (P03372 1-595): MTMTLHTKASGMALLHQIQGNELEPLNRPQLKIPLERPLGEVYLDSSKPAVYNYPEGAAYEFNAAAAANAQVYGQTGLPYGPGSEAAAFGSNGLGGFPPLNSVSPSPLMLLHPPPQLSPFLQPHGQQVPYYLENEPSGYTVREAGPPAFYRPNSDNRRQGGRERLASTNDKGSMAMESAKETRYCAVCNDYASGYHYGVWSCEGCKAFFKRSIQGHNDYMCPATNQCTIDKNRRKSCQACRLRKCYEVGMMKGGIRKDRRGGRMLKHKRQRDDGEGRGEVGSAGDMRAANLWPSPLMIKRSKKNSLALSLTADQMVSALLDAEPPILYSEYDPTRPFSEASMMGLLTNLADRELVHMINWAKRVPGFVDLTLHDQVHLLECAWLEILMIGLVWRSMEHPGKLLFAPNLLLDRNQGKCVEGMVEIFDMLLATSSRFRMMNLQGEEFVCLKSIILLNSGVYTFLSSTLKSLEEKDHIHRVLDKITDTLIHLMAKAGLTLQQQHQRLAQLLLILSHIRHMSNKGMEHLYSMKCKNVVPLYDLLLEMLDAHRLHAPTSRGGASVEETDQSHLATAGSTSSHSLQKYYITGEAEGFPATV
As to the kind of experiment: ER-alpha transactivation (ERE-LUC luciferase) in HEK-293 cells.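 On all read-outs here: HEK-293 cells co-transfected with an ER-alpha expression plasmid, an ERE-driven firefly luciferase reporter and a CMV Renilla control, with the firefly signal normalized to Renilla.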 The following applies: for EC50: read-out: Agonist ER-α; for IC50: antagonist mode, in combination with estradiol, read-out: Antagonist ER-α. Format: cell-based.

Data set [4] in a line: Liver microsome incubation (HLM Phase I and Phase I + II), LC-MS/MS. Format: in vitro ADME, human. The following applies: for microsomal CLint: human, human liver microsomes. Here is the method:
Stock solutions of prespective AKR1C3 inhibitors were prepared in DMSO at 5 mM and were incubated with liver microsomes (0.1 mg/mL). Incubations were conducted at 37° C. in a shaking water bath for 10 minutes (microsomes). Incubation durations were selected based on time course study (microsomes) or published literature (recombinant enzymes). Prepared samples were analyzed using LC-MS/MS.
(Liver microsomes are a subcellular fraction often used to study metabolism.)

Another data set addresses T3, ER-α (Homo sapiens, UniProt P03372).
T3 sequence (P03372 311-547 limits assumed): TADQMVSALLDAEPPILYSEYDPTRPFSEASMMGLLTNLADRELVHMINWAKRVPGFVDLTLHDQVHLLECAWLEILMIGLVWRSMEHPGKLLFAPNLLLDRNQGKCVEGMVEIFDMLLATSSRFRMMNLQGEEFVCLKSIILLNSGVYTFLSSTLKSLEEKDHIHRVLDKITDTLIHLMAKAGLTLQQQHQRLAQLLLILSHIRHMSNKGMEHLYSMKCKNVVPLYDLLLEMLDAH
As to the kind of experiment: ER-α ligand binding domain competitive binding with [3H]Estradiol.

The next data set concerns the target T4, ER-beta (Homo sapiens, UniProt Q92731).
T4 construct: expressed in transfected cells; host or cells: HEK-293
Put plainly: ER-beta transactivation (ERE-LUC luciferase) in HEK-293 cells.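 On all read-outs here: HEK-293 cells transiently transfected with an ER-β expression plasmid and ERE-LUC reporter, firefly luciferase read-out normalized to co-transfected Renilla luciferase.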 Format: cell-based. The conditions noted are these: for EC50: read-out: Agonist ER-β; for IC50: antagonist mode, in combination with estradiol, read-out: Antagonist ER-β.

For data set [5], the target named is T1, AKR1C3. The following applies: 100 nM androstenedione, 24 hrs, LC-MS/MS (FIG. 2).
Description: as §1, §2
Where [6] appears, read: 10 μM inhibitor, purified AKR1C3 TLC based enzyme assay, read-out: AKR1C3 inhibition at 10 μM.
The mark [7] stands for this setting: read-out: % inhibition from control HSD-5 (10 uM).
Setting [8] is: HLM Phase I + II, read-out: HLM Phase I + II CLint.
[9] abbreviates: HLM Phase I, read-out: HLM Phase I CLint.

Where “and” joins values, the source holds several entries; their conditions need not be identical. Equal values may be shown once. Read-outs that look alike come from different tables or passages of the source.

The term Ki denotes a dissociation constant, usually derived from enzyme kinetics or from competition with a known ligand. Read a high Ki as lower affinity. Usually inhibition stands for the relative decrease from the control value, in per cent.

T4 sequence (Q92731 whole entry, species assumed): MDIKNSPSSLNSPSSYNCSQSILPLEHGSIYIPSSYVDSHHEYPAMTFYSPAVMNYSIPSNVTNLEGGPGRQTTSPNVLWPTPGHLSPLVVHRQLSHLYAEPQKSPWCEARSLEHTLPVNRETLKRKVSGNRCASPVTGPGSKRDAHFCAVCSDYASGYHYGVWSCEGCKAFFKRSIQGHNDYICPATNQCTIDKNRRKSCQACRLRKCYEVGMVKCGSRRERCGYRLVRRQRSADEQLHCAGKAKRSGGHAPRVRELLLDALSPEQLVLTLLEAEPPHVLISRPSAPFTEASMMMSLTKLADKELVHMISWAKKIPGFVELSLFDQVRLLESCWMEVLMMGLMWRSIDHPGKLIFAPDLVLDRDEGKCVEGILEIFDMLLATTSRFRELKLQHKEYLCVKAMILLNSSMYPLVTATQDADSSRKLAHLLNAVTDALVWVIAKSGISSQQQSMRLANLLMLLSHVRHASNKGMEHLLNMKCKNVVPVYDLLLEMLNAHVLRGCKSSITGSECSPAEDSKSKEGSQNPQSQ
Chain of ER-β (Q92731 264-498 limits assumed, species assumed): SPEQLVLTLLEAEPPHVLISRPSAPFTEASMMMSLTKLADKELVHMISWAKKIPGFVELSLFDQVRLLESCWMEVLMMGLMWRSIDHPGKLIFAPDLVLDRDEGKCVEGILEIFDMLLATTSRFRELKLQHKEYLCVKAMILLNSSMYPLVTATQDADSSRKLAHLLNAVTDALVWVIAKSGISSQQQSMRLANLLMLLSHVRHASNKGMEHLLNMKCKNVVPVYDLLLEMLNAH

`COc1ccc(C=CC(=O)O)cc1OC` [3,4,dimethoxy cinnamic acid] yielded an IC50 against AKR1C3 [1] above 10 µM.
Regarding `O=c1c2ccc(O)cc2c(-c2ccc(C(F)(F)F)cc2)cn1-c1ccc(O)cc1` [Compound 13, 6-hydroxy-2-(4-hydroxyphenyl)-4-(4-(trifluoromethyl)phenyl)isoquinolin-1(2H)-one], the Ki at ER-β is 157 nM; at ER-α, above 1510 nM. Moreover, the IC50 was 0.451 µM on AKR1C3 [2], above 10 µM on ER-alpha and 0.677 µM on ER-beta. Also, the inhibition at 10 µM on AKR1C3 [3] (setting [6]) and at AKR1C3 [3] (setting [7]) was 52% in each case. The EC50 on ER-alpha (agonist mode, drug alone) was above 10 µM; at ER-beta (agonist mode, drug alone), above 10 µM. Besides, the “HLM Phase I CLint” value in [4] (HLM Phase I) turned out to be 0.8 µL/min/mg. In addition, the “HLM Phase I + II CLint” value in data set [4] (HLM Phase I + II) is 19.1 µL/min/mg. In [4] (HLM Phase I + II), the “HLM Phase I + II T-1/2” value was 40 min and 36.12 min. The results for the microsomal CLint in data set [4] (setting [8]) and in [4] (setting [9]) were 17 µL/min/mg and below 1 µL/min/mg, respectively.
With `O=c1c2ccc(O)cc2c(-c2ccc(O)cc2)cn1-c1ccc(CO)cc1` [Compound 14, 6-hydroxy-2-(4-(hydroxymethyl)phenyl)-4-(4-hydroxyphenyl)isoquinolin-1(2H)-one], the Ki on ER-β was above 2200 nM; on ER-α, above 1510 nM. For the same compound, the IC50 at AKR1C3 [2] is 1.32 µM; on ER-alpha, above 10 µM; at ER-beta it was above 10 µM. The EC50 was above 10 µM on ER-alpha (agonist mode, drug alone) and above 10 µM at ER-beta (agonist mode, drug alone).
Take `O=C(O)/C=C/c1cn(-c2ccc(O)cc2)c(=O)c2c(O)cc(O)cc12` [Compound 15l, (E)-3-(6,8-dihydroxy-2-(4-hydroxyphenyl)-1-oxo-1,2-dihydroisoquinolin-4-yl)acrylic acid]: the Ki at ER-β is 613 nM; on ER-α, above 1510 nM. At AKR1C3 [2], this compound registered an IC50 of 1.71 µM.
Regarding `O=c1c2ccc(O)cc2c(-c2ccc(C(F)(F)F)cc2)cn1-c1ccc(CBr)c(O)c1` [Compound 26, 2-(4-(bromomethyl)-3-hydroxyphenyl)-6-hydroxy-4-(4-(trifluoromethyl)phenyl)isoquinolin-1(2H)-one], the figures for the Ki at ER-β and on ER-α were above 2200 nM and above 1510 nM, respectively. Moreover, the figures for the IC50 against AKR1C3 [2], at ER-alpha and on ER-beta were 0.289 µM, above 10 µM and above 10 µM, respectively. The inhibition at 10 µM at AKR1C3 [3] (setting [6]) and on AKR1C3 [3] (setting [7]) was 50% throughout. Also, the EC50 on ER-alpha (agonist mode, drug alone) was above 10 µM; at ER-beta (agonist mode, drug alone) it was above 10 µM.
`NC(=O)c1ccc(-n2cc(-c3ccc(C(F)(F)F)c(F)c3)c3cc(O)ccc3c2=O)cc1` [Compound 215, 4-(4-(3-fluoro-4-(trifluoromethyl)phenyl)-6-hydroxy-1-oxoisoquinolin-2(1H)-yl)benzamide]: the “Inhibition of AKR1C3 dependent conversion of androstenedione to testosterone” value on AKR1C3 [5] is given as “potently inhibited”.
As for `O=c1c2c(O)cc(O)cc2c(Br)cn1-c1cccc(O)c1` [ZW-315-047], the Ki at ER-β is 7.23 nM; at ER-α, 503 nM. Also, the inhibition at 10 µM at AKR1C3 [3] (setting [7]) stood at 30%. In addition, the “Agonist ER-α” value at ER-alpha (agonist mode, drug alone) is listed as “Partial agonist”. Also, the IC50 on ER-alpha worked out at 1.72 µM; at ER-beta it was 2.21 µM. Also, in data set [4] (HLM Phase I), the “HLM Phase I CLint” value was 20.16 µL/min/mg and 19.5 µL/min/mg and 23.7 µL/min/mg. The “HLM Phase I T-1/2” value in data set [4] (HLM Phase I) was 41.58 min and 33.55 min and 35.5 min and 29.3 min. Besides, the “HLM Phase I + II CLint” value in data set [4] (HLM Phase I + II) stood at 460 µL/min/mg. For the same compound, the “HLM Phase I + II T-1/2” value in data set [4] (HLM Phase I + II) was 1.56 min and 1.5 min. The microsomal CLint in data set [4] (setting [8]) worked out at 442 µL/min/mg; in data set [4] (setting [9]), 16 µL/min/mg. The “Agonist ER-β” value at ER-beta (agonist mode, drug alone) is “Partial agonist”.
